Measured values from US7476687B2, “Substituted furo[2,3-g]indazoles for the treatment of glaucoma” (Alcon, Inc., priority 2003, dated 2009).
Where a name gives a salt, the structure may show the parent alone.

Assays:
[1] = biological target: T1, 5HT2A(rat) (Rattus norvegicus, UniProt P14842); experiment: 5HT2 Functional Assay: [Ca2+]i Mobilization (FLIPR, A7r5 cells); type: cell-based; design: endogenous in cells; host or cells: A7r5 rat vascular smooth muscle cells; conditions: for EC50: [Ca2+]i mobilization, rat vascular smooth muscle cells A7r5; for Emax: percentage of maximum 5-HT-induced response, A7r5 cells
Protocol: The receptor-mediated mobilization on intracellular calcium ([Ca^2+]i) was studied using the Fluorescence Imaging Plate Reader (FLIPR) instrument. Rat vascular smooth muscle cells, A7r5, were grown in a normal media of DMEM/10% FBS and 10 μg/mL gentamycin. Confluent cell monolayers were trypsinized, pelleted, and re-suspended in normal media. Cells were seeded in a 50 μL volume at a density of 20,000 cells/well in a black wall, 96-well tissue culture plate and grown for 2 days.
On the day of the experiment, one vial of FLIPR Calcium Assay Kit dye was re-suspended in 50 mL of a FLIPR buffer consisting of Hank's Balanced Salt Solution (HBSS), 20 mM HEPES, and 2.5 mM probenecid, pH 7.4. Cells were loaded with the calcium-sensitive dye by addition of an equal volume (50 μL) to each well of the 96-well plate and incubated with dye for 1 h at 23° C.
Compounds were diluted 1:50 in 20% DMSO/20% Ethanol. For “hit” screening, compounds were further diluted 1:10 in FLIPR buffer and tested at a final concentration of 10 μM.
The compound plate and cell plate were placed in the FLIPR instrument. At the beginning of an experimental run, a signal test was performed to check the basal fluorescence signal from the dye-loaded cells and the uniformity of the signal across the plate. The basal fluorescence was adjusted between 8000-12000 counts by modifying the exposure time, the camera F-stop, or the laser power. Instrument settings for a typical assay were the following: laser power 0.3-0.6 W, camera F-stop F/2, and exposure time 0.4 sec. An aliquot (25 μL) of the test compound was added to the existing 100 μL dye-loaded cells at a dispensing speed of 50 μL/sec. Fluorescence data were collected in real-time at 1.0 sec intervals for the first 60 secs and at 6.0 sec intervals for an additional 120 secs.

[2] = biological target: T1, 5HT2A(rat); experiment: 5-HT2 Receptor Binding Assay ([125I]DOI competition, cerebral cortex homogenates); design: Aliquots of post mortem rat or human cerebral cortex homogenates (400 μL) dispersed in 50 mM TrisHCl buffer; from tissue; host or cells: post mortem rat cerebral cortex homogenate; conditions: inhibition of [125I]DOI binding
Protocol: 5-HT2 Receptor Binding Assay
Aliquots of post mortem rat or human cerebral cortex homogenates (400 μL) dispersed in 50 mM TrisHCl buffer (pH 7.4) are incubated with [^125I]DOI (80 pM final) in the absence or presence of methiothepin (10 μM final) to define total and non-specific binding, respectively, in a total volume of 0.5 mL. The assay mixture is incubated for 1 hour at 23° C. in polypropylene tubes and the assays terminated by rapid vacuum filtration over Whatman GF/B glass fiber filters previously soaked in 0.3% polyethyleneimine using ice-cold buffer. Test compounds (at different concentrations) are substituted for methiothepin. Filter-bound radioactivity is determined by scintillation spectrometry on a beta counter. The data are analyzed using a non-linear, iterative curve-fitting computer program [Trends Pharmacol. Sci., 16, 413 (1995)] to determine the compound affinity parameter. The concentration of the compound needed to inhibit the [^125I]DOI binding by 50% of the maximum is termed the IC50 or Ki value.

T1 sequence (P14842 whole entry): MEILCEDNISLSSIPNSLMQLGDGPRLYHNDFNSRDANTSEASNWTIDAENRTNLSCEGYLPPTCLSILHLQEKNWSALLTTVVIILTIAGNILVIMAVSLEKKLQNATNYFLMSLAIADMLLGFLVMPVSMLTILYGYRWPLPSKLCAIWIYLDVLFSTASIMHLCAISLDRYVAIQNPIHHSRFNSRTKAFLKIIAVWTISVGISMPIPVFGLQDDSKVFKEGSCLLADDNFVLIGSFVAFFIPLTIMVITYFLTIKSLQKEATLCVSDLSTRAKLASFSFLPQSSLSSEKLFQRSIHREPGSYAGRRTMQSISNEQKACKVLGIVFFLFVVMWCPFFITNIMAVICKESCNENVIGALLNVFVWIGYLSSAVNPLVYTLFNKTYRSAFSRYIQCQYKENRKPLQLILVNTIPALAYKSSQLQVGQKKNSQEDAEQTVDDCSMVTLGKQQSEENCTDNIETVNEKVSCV

Compound	melting point [°C]	EC50 [1] [nM]	Emax [1] [%]	IC50 [2] [nM]
C[C@H](N)Cn1ncc2ccc3oc(C(N)=O)cc3c21 (as salt: fumarate) [Example 3, 1-((S)-2-Aminopropyl)-1H-furo[2,3-g]indazole-7-carboxylic acid amide]	170 to 172			
COCCNC(=O)c1cc2c(ccc3cnn(C[C@H](C)N)c32)o1 (as salt: fumarate) [Example 8, 1-((S)-2-Aminopropyl)-1H-furo[2,3-g]indazole-7-carboxylic acid (2-methoxyethyl)-amide]	75 to 76			
CC(O)CNC(=O)c1cc2c(ccc3cnn(C[C@H](C)N)c32)o1 (stereo partly drawn) (as salt: fumarate) [Example 9, 1-((S)-2-Aminopropyl)-1H-furo[2,3-g]indazole-7-carboxylic acid (2-hydroxypropyl)-amide]	190 to 191			
C[C@H](N)Cn1ncc2ccc3oc(C(=O)NCC4(O)CC4)cc3c21 (as salt: fumarate) [Example 10, 1-((S)-2-Aminopropyl)-1H-furo[2,3-g]indazole-7-carboxylic acid (1-hydroxy-cyclopropylmethyl)-amide]	77 to 79			
C[C@H](N)Cn1ncc2ccc3oc(C(=O)NCC(C)(C)CO)cc3c21 (as salt: fumarate) [Example 11, 1-((S)-2-Aminopropyl)-1H-furo[2,3-g]indazole-7-carboxylic acid (3-hydroxy-2,2-dimethyl-propyl)-amide]	103			
CC(=O)NCCCNC(=O)c1cc2c(ccc3cnn(C[C@H](C)N)c32)o1 (as salt: fumarate) [Example 12, 1-((S)-2-Amino-propyl)-1H-furo[2,3-g]indazole-7-carboxylic acid (3-acetylaminopropyl)-amide]	81			
C[C@H](N)Cn1ncc2ccc3oc(C(=O)NCCCN4CCCC4=O)cc3c21 (as salt: fumarate) [Example 13, 1-((S)-2-Aminopropyl)-1H-furo[2,3-g]indazole-7-carboxylic acid [3-(2-oxo-pyrrolidin-1-yl)-propyl]-amide]	82			
Cc1ccc(CNC(=O)c2cc3c(ccc4cnn(C[C@H](C)N)c43)o2)o1 (as salt: fumarate) [Example 14, 1-((S)-2-Aminopropyl)-1H-furo[2,3-g]indazole-7-carboxylic acid (5-methyl-furan-2-ylmethyl)amide]	118 to 120			
Cc1noc(-c2cc3c(ccc4cnn(C[C@H](C)N)c43)o2)n1 (as salt: fumarate) [Example 15, (S)-1-Methyl-2-[7-(3-methyl-1,2,4-oxadiazol-5-yl)-furo[2,3-g]indazol-1-yl]-ethylamine]	187 to 189			
CCOC(=O)c1cc2c(ccc3cnn(C[C@H](C)N)c32)o1.O=C(O)/C=C/C(=O)O [Example 1, 1-((S)-2-Aminopropyl)-1H-furo[2,3-g]indazole-7-carboxylic acid ethyl ester fumarate]	184 to 185	63	101	0.21
C[C@H](N)Cn1ncc2ccc3oc(CO)cc3c21 [Example 2, [1-((S)-2-Aminopropyl)-1H-furo[2,3-g]indazol-7-yl]-methanol]	110 to 112	18	86	0.53
C[C@H](N)Cn1ncc2ccc3oc(C(=O)NCCO)cc3c21 [Example 5, 1-((S)-2-Aminopropyl)-1H-furo[2,3-g]indazole-7-carboxylic acid (2-hydroxyethyl)-amide fumarate]		55	94	3.5
C[C@H](N)Cn1ncc2ccc3oc(C(=O)NCCc4cnc[nH]4)cc3c21.O=C(O)/C=C/C(=O)O [Example 6, 1-((S)-2-Aminopropyl)-1H-furo[2,3-g]indazole-7-carboxylic acid [2-(3H-imidazol-4-yl)-ethyl]-amide fumarate]	201 to 203	57	95	0.66
C[C@H](N)Cn1ncc2ccc3oc(C(=O)NCCN4CCOCC4)cc3c21 [Example 7, 1-((S)-2-Aminopropyl)-1H-furo[2,3-g]indazole-7-carboxylic acid (2-morpholin-4-yl-ethyl)-amide]		109	89	1.3
COCCNC(=O)c1cc2c(ccc3cnn(C[C@H](C)N)c32)o1 [Example 8, 1-((S)-2-Aminopropyl)-1H-furo[2,3-g]indazole-7-carboxylic acid (2-methoxyethyl)-amide]		54	94	2.3
CC(O)CNC(=O)c1cc2c(ccc3cnn(C[C@H](C)N)c32)o1 (stereo partly drawn) [Example 9, 1-((S)-2-Aminopropyl)-1H-furo[2,3-g]indazole-7-carboxylic acid (2-hydroxypropyl)-amide]		27	98	1.5
C[C@H](N)Cn1ncc2ccc3oc(C(=O)NCC4(O)CC4)cc3c21 [Example 10, 1-((S)-2-Aminopropyl)-1H-furo[2,3-g]indazole-7-carboxylic acid (1-hydroxy-cyclopropylmethyl)-amide]		15	94	1.1
CC(=O)NCCCNC(=O)c1cc2c(ccc3cnn(C[C@H](C)N)c32)o1 [Example 12, 1-((S)-2-Amino-propyl)-1H-furo[2,3-g]indazole-7-carboxylic acid (3-acetylaminopropyl)-amide]		37	95	1.4
C[C@H](N)Cn1ncc2ccc3oc(C(=O)NCCCN4CCCC4=O)cc3c21 [Example 13, 1-((S)-2-Aminopropyl)-1H-furo[2,3-g]indazole-7-carboxylic acid [3-(2-oxo-pyrrolidin-1-yl)-propyl]-amide]		72	87	2
Cc1ccc(CNC(=O)c2cc3c(ccc4cnn(C[C@H](C)N)c43)o2)o1 [Example 14, 1-((S)-2-Aminopropyl)-1H-furo[2,3-g]indazole-7-carboxylic acid (5-methyl-furan-2-ylmethyl)amide]		181	94	0.3
Cc1noc(-c2cc3c(ccc4cnn(C[C@H](C)N)c43)o2)n1 [Example 15, (S)-1-Methyl-2-[7-(3-methyl-1,2,4-oxadiazol-5-yl)-furo[2,3-g]indazol-1-yl]-ethylamine]		283	101	0.9
CNC(=O)Cc1cc2c(ccc3cnn(C[C@H](C)N)c32)o1 [Example 16, 2-[1-((S)-2-Amino-propyl)-1H-furo[2,3-g]indazol-7-yl]-N-methyl-acetamide]		28	97	0.7
C[C@H](N)Cn1ncc2ccc3oc(CNC(=O)c4cccnc4)cc3c21 [Example 17]		22	95	3
CCNC(=O)NCc1cc2c(ccc3cnn(C[C@H](C)N)c32)o1 [Example 18, 1-[1-((S)-2-Aminopropyl)-1H-furo[2,3-g]indazol-7-ylmethyl]-3-ethylurea]		23	87	4.1
CC(=O)Nc1ccc(S(=O)(=O)NCc2cc3c(ccc4cnn(C[C@H](C)N)c43)o2)cc1 [Example 19, N-(4-{[1-((S)-2-Aminopropyl)-1H-furo[2,3-g]indazol-7-ylmethyl]-sulfamoyl}-phenyl)-acetamide]	80 to 85	131	82	4.1
C[C@H](N)Cn1ncc2ccc3oc(CN4CCN(c5ccccn5)CC4)cc3c21 [Example 20, (S)-1-Methyl-2-[7-(4-pyridin-2-yl-piperazin-1-ylmethyl)-furo[2,3-g]indazol-1-yl]-ethylamine]		141	81	
